Source: the supplement of paper PMC12370961

Key:
Assay in all cases: differential drug sensitivity score (dDSS) relative to sarcoma reference cohort mean DSS (DSS units (0-100 scale difference)); higher = more selective sensitivity than reference sarcomas
Conditions in all cases: exposure time: 72 h; concentration range: 10-10000 nM
ES-ZH016 = test system: ES-ZH016 (patient-derived Ewing sarcoma tumoroid)
Procedure: (§1)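 Drug response profiling of patient-derived Ewing sarcoma and CIC::DUX4 sarcoma tumoroid models (or cells tested directly after isolation from the tumor, 'direct'). The DSS is the normalised AUC (0-100); dDSS is the sample DSS minus the mean DSS of a 34-sarcoma reference cohort profiled in the same lab.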

CDS-ZH001-2 = test system: CDS-ZH001-2 (patient-derived CIC-DUX4 sarcoma tumoroid)
Procedure: as §1

ES-ZH004 = test system: ES-ZH004 (patient-derived Ewing sarcoma tumoroid)
Procedure: as §1

ES-ZH002 = test system: ES-ZH002 (patient-derived Ewing sarcoma tumoroid)
Procedure: as §1

CDS-ZH002 = test system: CDS-ZH002 (patient-derived CIC-DUX4 sarcoma tumoroid)
Procedure: as §1

CDS-ZH003 = test system: CDS-ZH003 (patient-derived CIC-DUX4 sarcoma tumoroid)
Procedure: as §1

ES-ZH001 = test system: ES-ZH001 (patient-derived Ewing sarcoma tumoroid)
Procedure: as §1

CDS-ZH001 = test system: CDS-ZH001 (patient-derived CIC-DUX4 sarcoma tumoroid)
Procedure: as §1

ES-ZH009 = test system: ES-ZH009 (patient-derived Ewing sarcoma tumoroid)
Procedure: as §1

ES-ZH008 = test system: ES-ZH008 (patient-derived Ewing sarcoma tumoroid)
Procedure: as §1

ES-ZH016 direct = test system: ES-ZH016 direct (Ewing sarcoma cells right after isolation)
Procedure: as §1

ES-ZH007 = test system: ES-ZH007 (patient-derived Ewing sarcoma tumoroid)
Procedure: as §1

CDS-ZH002 direct = test system: CDS-ZH002 direct (CIC-DUX4 sarcoma cells right after isolation)
Procedure: as §1

Compound | differential drug sensitivity score (ES-ZH016) | differential drug sensitivity score (CDS-ZH001-2) | differential drug sensitivity score (ES-ZH004) | differential drug sensitivity score (ES-ZH002) | differential drug sensitivity score (CDS-ZH002) | differential drug sensitivity score (CDS-ZH003) | differential drug sensitivity score (ES-ZH001) | differential drug sensitivity score (CDS-ZH001) | differential drug sensitivity score (ES-ZH009) | differential drug sensitivity score (ES-ZH008) | differential drug sensitivity score (ES-ZH016 direct) | differential drug sensitivity score (ES-ZH007) | differential drug sensitivity score (CDS-ZH002 direct)
CC[C@H](Nc1ncnc2[nH]cnc12)c1nc2cccc(F)c2c(=O)n1-c1ccccc1 [Idelalisib] | 1.5 | -1.3 | -1.5 | 1.3 | -1.4 | 2.9 | -1.5 | -1.4 | -1.5 | -1.5 | -1.5 | -1.5 | -1.5
O=P1(NCCCl)OCCCN1CCCl (stereo not given) [Ifosfamide] | -1 | -1 | 5.5 | 5.4 | -1 | -1 | 0.6 | -1 | -1 | 1.6 | -1 | -1 | -1
Cc1ccc(NC(=O)c2ccc(CN3CCN(C)CC3)cc2)cc1Nc1nccc(-c2cccnc2)n1 [Imatinib] | -3.3 | -0.8 | 0.7 | 3.2 | -1.5 | 12.4 | -2.9 | 0.4 | -3.3 | 0.1 | 1.6 | -1.3 | -1.3
CCN1CCN(c2ccc(Nc3cc(N(C)C(=O)Nc4c(Cl)c(OC)cc(OC)c4Cl)ncn3)cc2)CC1 [Infigratinib] | -4 | -1.1 | -3.9 | 2 | -6.1 | -1.3 | -4 | -1.9 | -0.1 | -6.1 | 1.6 | -3.2 | 2.3
CC(C)NC[C@@H](C(=O)N1CCN(c2ncnc3c2[C@H](C)C[C@H]3O)CC1)c1ccc(Cl)cc1 [Ipatasertib] | -0.5 | 2 | 3.9 | 10.2 | -0.8 | 8.9 | -3.2 | 7.6 | 2.4 | 6.6 | -3.9 | 1.3 | -3.2
CCc1c2c(nc3ccc(OC(=O)N4CCC(N5CCCCC5)CC4)cc13)-c1cc3c(c(=O)n1C2)COC(=O)[C@]3(O)CC [Irinotecan] | 17.9 | -0.6 | 23.1 | 23.1 | -4 | -9.5 | 19.6 | 1 | 9.1 | 31.1 | 15.8 | 14.3 | -5.3
N#Cc1ccnc(N2C(=O)CC[C@H]2C(=O)N(c2cncc(F)c2)[C@H](C(=O)NC2CC(F)(F)C2)c2ccccc2Cl)c1 [Ivosidenib] | -2.1 | -2.1 | -2.1 | -2.1 | -2.1 | -2.1 | -2.1 | -2.1 | -2.1 | 7.8 | 18.2 | -2.1 | -2.1
CC(C)C[C@H](NC(=O)CNC(=O)c1cc(Cl)ccc1Cl)B(O)O [Ixazomib] | -2.9 | 3.6 | 3.5 | 4.9 | 1.8 | 3.2 | 5.2 | 9.5 | 7.6 | 0.7 | -2.2 | 4.9 | 9.9
Clc1ccc(NN=C(c2ccccc2)c2ccccn2)nc1 [JIB04] | 1.5 | 0.6 | -4.3 | -6 | 1.4 | -2.7 | -6.1 | -4.4 | -2.6 | -2.5 | -0.6 | 0.7 | -4.8
CCc1c(O)cc(O)c(C(=O)c2ccc(OCCN3CCOCC3)c(OC)c2)c1CC(=O)N(CCOC)CCOC [KW-2478] | 1.4 | 0.4 | 0 | 7.3 | -3.8 | -1.3 | 3.5 | -0.4 | 4.4 | 6.1 | 3.2 | 0.6 | -0.4
CN[C@@H](C)C(=O)N[C@H](C(=O)N1CCC[C@H]1c1nc(C(=O)c2ccc(F)cc2)cs1)C1CCCCC1 [LCL161] | -1.3 | 4.5 | -0.7 | -1.3 | -1.3 | 3.3 | -1.3 | 11.6 | -1.3 | -0.8 | 0.8 | -0.2 | 1
CS(=O)(=O)CCNCc1ccc(-c2ccc3ncnc(Nc4ccc(OCc5cccc(F)c5)c(Cl)c4)c3c2)o1 [Lapatinib] | -0.7 | -0.5 | -0.7 | 0.3 | -0.7 | -0.7 | -0.7 | -0.7 | -0.7 | -0.7 | -0.5 | -0.7 | -0.7
O=C(Nc1cnn2ccc(N3CCC[C@@H]3c3cc(F)ccc3F)nc12)N1CC[C@H](O)C1 [Larotrectinib] | -0.9 | -0.9 | -0.8 | -0.9 | -0.9 | 8.8 | -0.9 | 1.2 | -0.9 | -0.9 | -0.9 | -0.9 | -0.9
Nc1cccc2c1CN(C1CCC(=O)NC1=O)C2=O (stereo not given) [Lenalidomide] | -1.2 | -1.2 | 7.7 | 1.8 | -1.2 | -1.2 | 0.4 | -1.2 | -1.2 | 7.4 | -1.2 | -1.2 | -1.2
COc1cc2nccc(Oc3ccc(NC(=O)NC4CC4)c(Cl)c3)c2cc1C(N)=O [Lenvatinib] | -2.4 | -2.4 | 0.5 | 5.8 | -2.4 | -2.4 | 3.9 | -2.4 | -2.4 | 5 | -2.4 | -1.2 | -2.4
Cc1ccc(F)c(NC(=O)Nc2ccc(-c3cccc4[nH]nc(N)c34)cc2)c1 [Linifanib] | 0.1 | -0.9 | -1.3 | 2.4 | -1.4 | 0.8 | 3.8 | 0.8 | 2.3 | -0.4 | 0.7 | -1.4 | 1.4
C[C@]1(O)C[C@@H](c2nc(-c3ccc4ccc(-c5ccccc5)nc4c3)c3c(N)nccn32)C1 [Linsitinib] | 6.8 | 5.7 | 3.2 | 15.2 | -5 | 5.7 | 0.8 | 3.8 | 3.7 | 4.9 | 3.2 | 3 | -5.9
C[C@H]1Oc2cc(cnc2N)-c2c(nn(C)c2C#N)CN(C)C(=O)c2ccc(F)cc21 [Lorlatinib] | 1.2 | 6.9 | -4.3 | 5.9 | -1.4 | 1.5 | -1.4 | 11.6 | -2.4 | -3.5 | -1.1 | -0.9 | 4.2
CCNC(=O)c1noc(-c2cc(C(C)C)c(O)cc2O)c1-c1ccc(CN2CCOCC2)cc1 [Luminespib] | 2.2 | 2.1 | 1.2 | 10.5 | -9.4 | 2.7 | 3.5 | 4.1 | 6.6 | 7.8 | 8.1 | 3.7 | -3.8
NC1(c2ccc(-c3nc4ccn5c(=O)[nH]nc5c4cc3-c3ccccc3)cc2)CCC1 [MK-2206] | 0.5 | 10.4 | 6.8 | 14 | -3.1 | -2.3 | 1.8 | 3.7 | 4.8 | 13.3 | 15.8 | 3.4 | 0.7
Cn1cc(-c2cnn3c(N)c(Br)c([C@@H]4CCCNC4)nc23)cn1 [MK-8776] | -1.8 | 7.1 | -2.9 | 8.9 | -1.5 | -6.8 | 4.7 | 4.4 | 6.8 | 8.5 | 6.3 | 1.8 | 1.1
C=C(F)C(=O)N1CCN(c2nc(OC[C@@H]3CCCN3C)nc3c2CCN(c2cccc4cccc(Cl)c24)C3)C[C@@H]1CC#N [MRTX849] | -1.7 | 0.7 | 0.1 | 1.1 | 1.5 | 3.5 | -0.9 | 4.8 | 1.8 | 1.6 | -1.7 | 2 | 0.7
N[C@@H](Cc1ccc(N(CCCl)CCCl)cc1)C(=O)O [Melphalan] | 3.5 | -1.7 | 4.3 | 7 | -1.7 | -1.7 | -1 | -1.7 | -1.3 | 2.7 | 4 | -1.7 | -1.7
S=c1[nH]cnc2nc[nH]c12 [Mercaptopurine] | 2.9 | 12 | -4.2 | 0.3 | -1.3 | -5 | 0.9 | 3.8 | 7.4 | -1.6 | 4.9 | -0.4 | -1.8
CN(Cc1cnc2nc(N)nc(N)c2n1)c1ccc(C(=O)N[C@@H](CCC(=O)O)C(=O)O)cc1 [Methotrexate] | 4.4 | -10.9 | -9.9 | -0.6 | -4.9 | -14 | 11.6 | 0 | 21.6 | -6.2 | -5.4 | -3.6 | -10.4
CO[C@@H]1[C@H](N(C)C(=O)c2ccccc2)C[C@H]2O[C@]1(C)n1c3ccccc3c3c4c(c5c6ccccc6n2c5c31)C(=O)NC4 [Midostaurin] | 3.1 | 2.2 | -11 | 3.4 | -4.2 | -0.3 | 5.9 | -1.3 | 7.9 | 5.8 | 7.8 | -1.6 | 0.6
O=C(NOC[C@H](O)CO)c1ccc(F)c(F)c1Nc1ccc(I)cc1F [Mirdametinib] | -3 | -3 | -3 | -3 | -3 | -3 | -3 | -3 | -3 | -1.9 | -3 | -3 | -2.9
CO[C@@]12[C@H](COC(N)=O)C3=C(C(=O)C(C)=C(N)C3=O)N1C[C@@H]1N[C@@H]12 [Mitomycin] | 17.3 | 1.6 | 10.3 | 22.4 | -4.7 | 0.6 | 14.4 | -1.3 | 6.6 | 18.4 | 15.5 | 9.5 | -3.8
O=C1c2c(O)ccc(O)c2C(=O)c2c(NCCNCCO)ccc(NCCNCCO)c21 [Mitoxantrone] | 14.7 | 9.1 | 5.1 | 21.8 | 3.5 | -2.1 | 10.9 | 5.1 | 10 | 9.8 | 11.9 | -1.8 | 0.4
Nc1ccccc1NC(=O)c1ccc(CNc2nccc(-c3cccnc3)n2)cc1 [Mocetinostat] | 1.4 | 1.5 | 8.4 | 2.4 | -2.7 | -9 | 0.8 | -3.3 | 1.8 | 7.1 | 7.8 | 2.6 | -0.9
